Laboratory results published in patent US11180494B2, “Substituted amino acids as integrin inhibitors” (Pliant Therapeutics, Inc., priority 2018, dated 2021).

Each compound was assayed against human integrin αvβ6 (Homo sapiens (Human), UniProt P06756+P18564) (assay: Proximity-based integrin receptor binding assay (ALPHASCREEN) for inhibitor potency). Settings: inhibition of binding of TGF-b1 LAP to human integrin αvβ6; values given in ranges.
Protocol: To gauge the potency of inhibitors of binding to human integrin αvβ6, inhibitor compounds and integrin were incubated together with TGF-b1 LAP and biotinylated anti-LAP antibody plus acceptor and donor beads, following the manufacture's recommendations. The donor beads were coated with streptavidin. […] All incubations occurred at room temperatures in 50 mM Tris-HCl, pH 7.5, 0.1% BSA supplemented with 1 mM each CaCl2 and MgCl2.
The order of reagent addition was as follows:
1. Alpha-v-beta-6 integrin, test inhibitor compound, LAP, biotinylated anti-LAP antibody and acceptor beads were all added together.
2. After 2 hours, donor beads were added. After another 30 minute incubation, samples were then read.
Integrin binding was evaluated by exciting donor beads at 680 nm, and measuring the fluorescent signal produced, between 520-620 nm, using a Biotek Instruments (Winooski, Vt., USA) SynergyNeo2 multimode plate reader. […] Data analysis for IC50 determinations was carried out by nonlinear four parameter logistic regression analysis using Dotmatics ELN Software (Core Informatics Inc., Branford, Conn.).

human integrin αvβ6, sequence (P06756 31-992): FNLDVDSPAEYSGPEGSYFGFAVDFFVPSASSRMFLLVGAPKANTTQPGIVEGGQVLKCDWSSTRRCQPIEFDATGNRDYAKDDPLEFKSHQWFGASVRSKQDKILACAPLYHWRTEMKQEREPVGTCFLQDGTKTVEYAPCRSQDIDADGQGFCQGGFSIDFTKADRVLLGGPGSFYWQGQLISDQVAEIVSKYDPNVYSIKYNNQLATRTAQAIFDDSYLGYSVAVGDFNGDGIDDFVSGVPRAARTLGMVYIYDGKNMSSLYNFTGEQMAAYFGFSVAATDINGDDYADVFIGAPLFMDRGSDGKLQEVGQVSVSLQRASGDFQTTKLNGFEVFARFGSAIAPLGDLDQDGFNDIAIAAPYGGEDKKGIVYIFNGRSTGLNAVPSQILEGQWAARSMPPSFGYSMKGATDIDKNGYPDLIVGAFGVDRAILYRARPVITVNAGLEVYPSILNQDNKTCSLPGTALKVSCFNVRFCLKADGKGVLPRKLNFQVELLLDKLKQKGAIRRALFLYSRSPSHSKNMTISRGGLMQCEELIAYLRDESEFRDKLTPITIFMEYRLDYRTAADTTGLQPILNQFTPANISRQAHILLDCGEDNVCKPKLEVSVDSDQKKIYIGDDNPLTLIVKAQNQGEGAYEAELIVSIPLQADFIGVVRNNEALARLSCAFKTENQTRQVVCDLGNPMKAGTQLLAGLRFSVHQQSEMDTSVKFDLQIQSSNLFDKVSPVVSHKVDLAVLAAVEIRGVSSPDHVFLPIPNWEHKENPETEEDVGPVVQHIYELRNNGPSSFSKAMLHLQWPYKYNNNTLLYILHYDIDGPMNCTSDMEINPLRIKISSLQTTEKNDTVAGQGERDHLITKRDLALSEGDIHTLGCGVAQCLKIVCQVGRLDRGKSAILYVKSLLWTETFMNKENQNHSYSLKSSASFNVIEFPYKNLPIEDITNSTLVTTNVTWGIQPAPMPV
human integrin αvβ6, sequence (P18564 22-707): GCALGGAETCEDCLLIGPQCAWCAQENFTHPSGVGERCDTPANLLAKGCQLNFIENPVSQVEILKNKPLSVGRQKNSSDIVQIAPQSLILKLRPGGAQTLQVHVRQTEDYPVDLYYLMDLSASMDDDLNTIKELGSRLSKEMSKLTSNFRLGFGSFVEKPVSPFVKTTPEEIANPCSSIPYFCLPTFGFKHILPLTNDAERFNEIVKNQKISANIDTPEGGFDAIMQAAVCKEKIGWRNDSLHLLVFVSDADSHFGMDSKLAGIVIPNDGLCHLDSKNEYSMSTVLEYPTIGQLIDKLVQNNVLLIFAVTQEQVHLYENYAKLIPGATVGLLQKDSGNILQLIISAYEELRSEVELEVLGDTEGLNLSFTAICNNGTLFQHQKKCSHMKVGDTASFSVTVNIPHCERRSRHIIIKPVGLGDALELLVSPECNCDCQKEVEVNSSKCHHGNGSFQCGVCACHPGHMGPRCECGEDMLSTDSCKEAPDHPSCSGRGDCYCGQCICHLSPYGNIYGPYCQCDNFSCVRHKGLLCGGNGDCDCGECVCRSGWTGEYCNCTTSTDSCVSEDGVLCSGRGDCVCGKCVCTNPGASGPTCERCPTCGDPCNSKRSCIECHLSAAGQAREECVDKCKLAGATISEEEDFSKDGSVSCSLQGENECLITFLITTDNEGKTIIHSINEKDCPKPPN

Compound | IC50 [nM]
N#CC1(C(=O)N[C@@H](CCO[C@H]2C[C@H](CCc3ccc4c(n3)NCCC4)C2)C(=O)O)CCOCC1 [Compound 171, N-(4-cyanotetrahydro-2H-pyran-4-carbonyl)-O-(trans-3-(2-(5,6,7,8-tetrahydro-1,8-naphthyridin-2-yl)ethyl)cyclobutyl)homoserine] | < 50
CC(C)N(C)C(=O)N[C@@H](CCO[C@H]1C[C@H](CCc2ccc3c(n2)NCCC3)C1)C(=O)O [Compound 120, N-(isopropyl(methyl)carbamoyl)-O-(trans-3-(2-(5,6,7,8-tetrahydro-1,8-naphthyridin-2-yl)ethyl)cyclobutyl)homoserine] | < 50
O=C(N[C@@H](CCO[C@H]1C[C@H](CCc2ccc3c(n2)NCCC3)C1)C(=O)O)C1CCc2ccccc21 (single isomer, unassigned) [95*,†] | > 1000
CC(=O)NC[C@H](C)OC(=O)N[C@@H](CCO[C@H]1C[C@H](CCc2ccc3c(n2)NCCC3)C1)C(=O)O [Compound 151, N—((((S)-1-acetamidopropan-2-yl)oxy)carbonyl)-O-(trans-3-(2-(5,6,7,8-tetrahydro-1,8-naphthyridin-2-yl)ethyl)cyclobutyl)homoserine] | < 50
Cn1ccc2c(C(=O)N[C@@H](CCO[C@H]3C[C@H](CCc4ccc5c(n4)NCCC5)C3)C(=O)O)ccnc21 [Compound 41, N-(1-methyl-1H-pyrrolo[2,3-b]pyridine-4-carbonyl)-O-(trans-3-(2-(5,6,7,8-tetrahydro-1,8-naphthyridin-2-yl)ethyl)cyclobutyl)homoserine] | < 50
CC(C)(CC#N)C(=O)NC(CCO[C@H]1C[C@H](CCc2ccc3c(n2)NCCC3)C1)C(=O)O (stereo partly drawn) [Compound 93, N-(3-cyano-2,2-dimethylpropanoyl)-O-(trans-3-(2-(5,6,7,8-tetrahydro-1,8-naphthyridin-2-yl)ethyl)cyclobutyl)homoserine] | 50 to 250
O=C(N[C@@H](CCO[C@H]1C[C@H](CCc2ccc3c(n2)NCCC3)C1)C(=O)O)O[C@H]1C[C@@H](c2ccccc2)C1 [Compound 143, N-((cis-3-phenylcyclobutoxy)carbonyl)-O-(trans-3-(2-(5,6,7,8-tetrahydro-1,8-naphthyridin-2-yl)ethyl)cyclobutyl)homoserine] | 250 to 1000
O=C(N[C@@H](CCO[C@H]1C[C@@H](CCc2ccc3c(n2)NCCC3)C1)C(=O)O)c1ccc(F)c(F)c1 [Compound 66, N-(3,4-difluorobenzoyl)-O-(cis-3-(2-(5,6,7,8-tetrahydro-1,8-naphthyridin-2-yl)ethyl)cyclobutyl)homoserine] | 50 to 250
O=C(N[C@@H](CCO[C@H]1C[C@H](CCc2ccc3c(n2)NCCC3)C1)C(=O)O)c1ccnc2cc[nH]c12 (relative stereo) [Compound 170, N-(1H-pyrrolo[3,2-b]pyridine-7-carbonyl)-O-(trans-3-(2-(5,6,7,8-tetrahydro-1,8-naphthyridin-2-yl)ethyl)cyclobutyl)homoserine] | < 50
CCCCC(=O)NC(CCOCCCCc1ccc2c(n1)NCCC2)C(=O)O (stereo not drawn) [Compound 8, N-pentanoyl-O-(4-(5,6,7,8-tetrahydro-1,8-naphthyridin-2-yl)butyl)homoserine] | 250 to 1000
O=C(N[C@@H](CCO[C@H]1C[C@H](CCc2ccc3c(n2)NCCC3)C1)C(=O)O)c1cccc(F)c1F [Compound 23, N-(2,3-difluorobenzoyl)-O-(trans-3-(2-(5,6,7,8-tetrahydro-1,8-naphthyridin-2-yl)ethyl)cyclobutyl)homoserine] | < 50
O=C(O)C(CCO[C@H]1C[C@H](CCc2ccc3cccnc3n2)C1)Nc1ncnc2ccccc12 (stereo partly drawn) [Example 227, O-(trans-3-(2-(1,8-naphthyridin-2-yl)ethyl)cyclobutyl)-N-(quinazolin-4-yl)homoserine] | 250 to 1000
O=C(O)C(CCO[C@H]1C[C@H](CCc2ccc3c(n2)NCCC3)C1)NC(=O)[C@@H](O)c1ccccc1 (stereo partly drawn) [Compound 79, N—((S)-2-hydroxy-2-phenylacetyl)-O-(trans-3-(2-(5,6,7,8-tetrahydro-1,8-naphthyridin-2-yl)ethyl)cyclobutyl)homoserine] | 50 to 250
CC(C)(CO)C(=O)NC(CCO[C@H]1C[C@H](CCc2ccc3c(n2)NCCC3)C1)C(=O)O (stereo partly drawn) [Compound 104, N-(3-hydroxy-2,2-dimethylpropanoyl)-O-(trans-3-(2-(5,6,7,8-tetrahydro-1,8-naphthyridin-2-yl)ethyl)cyclobutyl)homoserine] | < 50
CC(C)N(C(=O)N[C@@H](CCO[C@H]1C[C@H](CCc2ccc3c(n2)NCCC3)C1)C(=O)O)C(C)C [Compound 121, N-(diisopropylcarbamoyl)-O-(trans-3-(2-(5,6,7,8-tetrahydro-1,8-naphthyridin-2-yl)ethyl)cyclobutyl)homoserine] | < 50
O=C(N[C@@H](CCO[C@H]1C[C@H](CCc2ccc3c(n2)NCCC3)C1)C(=O)O)c1cccc(CO)c1 [Compound 50, N-(3-(hydroxymethyl)benzoyl)-O-(trans-3-(2-(5,6,7,8-tetrahydro-1,8-naphthyridin-2-yl)ethyl)cyclobutyl)homoserine] | < 50
O=C(N[C@@H](CCO[C@H]1C[C@H](CCc2ccc3c(n2)NCCC3)C1)C(=O)O)c1ccc(F)cc1 [Compound 16, N-(4-fluorobenzoyl)-O-(trans-3-(2-(5,6,7,8-tetrahydro-1,8-naphthyridin-2-yl)ethyl)cyclobutyl)homoserine] | < 50
O=C(NC(CCOCCCCc1ccc2c(n1)NCCC2)C(=O)O)c1c(Cl)cccc1Cl (stereo not drawn) [Compound 188, N-(2,6-dichlorobenzoyl)-O-(4-(5,6,7,8-tetrahydro-1,8-naphthyridin-2-yl)butyl)homoserine] | 50 to 250
CCC(CC)CC(=O)NC(CCO[C@H]1C[C@H](CCc2ccc3c(n2)NCCC3)C1)C(=O)O (stereo partly drawn) [Compound 45, N-(3-ethylpentanoyl)-O-(trans-3-(2-(5,6,7,8-tetrahydro-1,8-naphthyridin-2-yl)ethyl)cyclobutyl)homoserine] | 50 to 250
CC(C)(C)OC(=O)N1CC(C#Cc2ccccc2)(OC(=O)N[C@@H](CCO[C@H]2C[C@H](CCc3ccc4c(n3)NCCC4)C2)C(=O)O)C1 [Compound 159, N-(((1-(tert-butoxycarbonyl)-3-(phenylethynyl)azetidin-3-yl)oxy)carbonyl)-O-(trans-3-(2-(5,6,7,8-tetrahydro-1,8-naphthyridin-2-yl)ethyl)cyclobutyl)homoserine] | < 50
O=C(N[C@@H](CCO[C@H]1C[C@H](CCc2ccc3c(n2)NCCC3)C1)C(=O)O)c1cccc2ncccc12 [Compound 51, N-(quinoline-5-carbonyl)-O-(trans-3-(2-(5,6,7,8-tetrahydro-1,8-naphthyridin-2-yl)ethyl)cyclobutyl)homoserine] | < 50
CCC(CC)(C(=O)N[C@@H](CCO[C@H]1C[C@H](CCc2ccc3c(n2)NCCC3)C1)C(=O)O)c1ccccc1 [Compound 169, N-(2-ethyl-2-phenylbutanoyl)-O-(trans-3-(2-(5,6,7,8-tetrahydro-1,8-naphthyridin-2-yl)ethyl)cyclobutyl)homoserine] | 50 to 250
O=C(NC(CCOCCCCc1ccc2c(n1)NCCC2)C(=O)O)c1cccc(F)c1Cl (racemic) [Compound 1, N-(2-chloro-3-fluorobenzoyl)-O-(4-(5,6,7,8-tetrahydro-1,8-naphthyridin-2-yl)butyl)homoserine] | < 50
O=C(N[C@@H](CCO[C@H]1C[C@H](CCc2ccc3c(n2)NCCC3)C1)C(=O)O)c1cccc(Cl)c1 [Compound 20, N-(3-chlorobenzoyl)-O-(trans-3-(2-(5,6,7,8-tetrahydro-1,8-naphthyridin-2-yl)ethyl)cyclobutyl)homoserine] | < 50
O=C(N[C@@H](CCO[C@H]1C[C@H](CCc2ccc3c(n2)NCCC3)C1)C(=O)O)c1ccccc1N1CCOCC1 [Compound 168, N-(2-morpholinobenzoyl)-O-(trans-3-(2-(5,6,7,8-tetrahydro-1,8-naphthyridin-2-yl)ethyl)cyclobutyl)homoserine] | 50 to 250
O=C(N[C@@H](CCO[C@H]1C[C@H](CCc2ccc3c(n2)NCCC3)C1)C(=O)O)c1ccccc1C1CC1 [Compound 52, N-(2-cyclopropylbenzoyl)-O-(trans-3-(2-(5,6,7,8-tetrahydro-1,8-naphthyridin-2-yl)ethyl)cyclobutyl)homoserine] | < 50
CCC(CC)C(=O)NC(CCOCCCCc1ccc2c(n1)NCCC2)C(=O)O (stereo not drawn) [Compound 5, N-(2-ethylbutanoyl)-O-(4-(5,6,7,8-tetrahydro-1,8-naphthyridin-2-yl)butyl)homoserine] | 50 to 250
CC(C)(C(=O)NC(CCO[C@H]1C[C@H](CCc2ccc3c(n2)NCCC3)C1)C(=O)O)c1cccnc1 (stereo partly drawn) [Compound 91, N-(2-methyl-2-(pyridin-3-yl)propanoyl)-O-(trans-3-(2-(5,6,7,8-tetrahydro-1,8-naphthyridin-2-yl)ethyl)cyclobutyl)homoserine] | 50 to 250
CC(C)COC(=O)N[C@@H](CCO[C@H]1C[C@H](CCc2ccc3c(n2)NCCC3)C1)C(=O)O [Compound 132, N-(isobutoxycarbonyl)-O-(trans-3-(2-(5,6,7,8-tetrahydro-1,8-naphthyridin-2-yl)ethyl)cyclobutyl)homoserine] | 50 to 250
O=C(O)C(CCO[C@H]1C[C@@H](CCc2ccc3c(n2)NCCC3)C1)NC(=O)[C@@H](CO)c1ccccc1 (stereo partly drawn) [Compound 71, N—((R)-3-hydroxy-2-phenylpropanoyl)-O-(cis-3-(2-(5,6,7,8-tetrahydro-1,8-naphthyridin-2-yl)ethyl)cyclobutyl)homoserine] | > 1000
